According to patent publication EP4667458A1 (Kanaph Therapeutics Inc., priority 2023, dated 2024):
pIC50: −log10 of the molar value.

Biological target: T1, KRAS^G12C::SOS1 (Homo sapiens, UniProt Q07889)
T1 sequence (Q07889 1-1333): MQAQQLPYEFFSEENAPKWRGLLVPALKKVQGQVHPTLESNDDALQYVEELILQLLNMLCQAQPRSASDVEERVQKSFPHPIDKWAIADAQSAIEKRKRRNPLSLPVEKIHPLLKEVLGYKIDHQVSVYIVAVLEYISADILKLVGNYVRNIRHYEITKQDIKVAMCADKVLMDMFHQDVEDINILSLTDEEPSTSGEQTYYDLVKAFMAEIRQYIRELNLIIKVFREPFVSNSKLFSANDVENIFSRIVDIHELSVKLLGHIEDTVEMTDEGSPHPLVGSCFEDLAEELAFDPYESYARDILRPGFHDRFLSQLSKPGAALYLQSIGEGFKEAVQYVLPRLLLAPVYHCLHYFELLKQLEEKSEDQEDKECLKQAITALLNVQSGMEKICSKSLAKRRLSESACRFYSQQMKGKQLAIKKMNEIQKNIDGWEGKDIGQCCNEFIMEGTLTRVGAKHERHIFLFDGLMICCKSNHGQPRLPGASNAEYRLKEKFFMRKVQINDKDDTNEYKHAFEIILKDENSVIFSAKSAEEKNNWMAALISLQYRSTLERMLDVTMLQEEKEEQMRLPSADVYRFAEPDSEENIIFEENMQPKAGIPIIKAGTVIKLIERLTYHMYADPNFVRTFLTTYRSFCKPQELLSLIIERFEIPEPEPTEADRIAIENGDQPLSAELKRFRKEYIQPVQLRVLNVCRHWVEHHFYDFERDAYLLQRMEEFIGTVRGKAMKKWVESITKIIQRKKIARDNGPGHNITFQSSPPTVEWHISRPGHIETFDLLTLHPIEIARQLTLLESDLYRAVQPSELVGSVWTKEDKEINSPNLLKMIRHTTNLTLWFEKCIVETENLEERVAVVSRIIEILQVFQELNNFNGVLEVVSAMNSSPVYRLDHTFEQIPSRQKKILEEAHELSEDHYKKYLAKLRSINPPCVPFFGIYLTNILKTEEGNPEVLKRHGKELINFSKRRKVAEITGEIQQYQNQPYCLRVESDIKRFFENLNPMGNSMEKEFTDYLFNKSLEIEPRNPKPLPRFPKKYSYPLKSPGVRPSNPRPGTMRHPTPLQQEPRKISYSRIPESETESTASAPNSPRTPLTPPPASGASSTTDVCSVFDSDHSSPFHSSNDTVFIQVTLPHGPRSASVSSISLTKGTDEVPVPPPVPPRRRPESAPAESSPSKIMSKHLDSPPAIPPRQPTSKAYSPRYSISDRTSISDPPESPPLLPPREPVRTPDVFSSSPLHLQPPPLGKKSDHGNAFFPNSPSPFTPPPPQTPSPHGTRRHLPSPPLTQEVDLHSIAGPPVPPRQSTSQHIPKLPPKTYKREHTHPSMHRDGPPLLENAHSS
Experiment: KRAS G12C::SOS1 protein-protein interaction (PPI) inhibition assay (HTRF binding kit)
Conditions: not given

| pIC50 | Compound |
| --- | --- |
| > 6.00 | C[C@@H](NC(=O)c1ccc(=O)n(-c2cccnc2F)n1)c1cc(N)cc(C(F)(F)F)c1 [Example 360, N-[(1R)-1-[3-amino-5-(trifluoromethyl)phenyl]ethyl]-1-(2-fluoro-3-pyridyl)-6-oxo-pyridazine-3-carboxamide] |
| > 6.00 | C[C@@H](NC(=O)c1ccc(=O)n(-c2cccc(CO)c2)n1)c1cccc(C(F)(F)CO)c1F [Example 170, N-[(1R)-1-[3-(1,1-difluoro-2-hydroxy-ethyl)-2-fluoro-phenyl]ethyl]-1-[3-(hydroxymethyl)phenyl]-6-oxo-pyridazine-3-carboxamide] |
| > 6.00 | C[C@@H](NC(=O)c1ccc(=O)n(-c2ccccc2F)n1)c1cccc(C(F)(F)CN(C)C)c1 [Example 258, N-[(1R)-1-[3-[2-(dimethylamino)-1,1-difluoro-ethyl]phenyl]ethyl]-1-(2-fluorophenyl)-6-oxo-pyridazine-3-carboxamide] |
| > 6.00 | CNCc1sccc1-c1cccc([C@@H](C)NC(=O)c2ccc(=O)n(-c3ccccc3F)n2)c1 [Example 291, 1-(2-fluorophenyl)-N-[(1R)-1-[3-[2-(methylaminomethyl)-3-thienyl]phenyl]ethyl]-6-oxo-pyridazine-3-carboxamide] |
| > 6.00 | Cc1nnc(-c2cccc(-n3nc(C(=O)N[C@H](C)c4cc(N)cc(C(F)(F)F)c4)ccc3=O)c2)o1 [Example 319, N-[(1R)-1-[3-amino-5-(trifluoromethyl)phenyl]ethyl]-1-[3-(5-methyl-1,3,4-oxadiazol-2-yl)phenyl]-6-oxo-pyridazine-3-carboxamide] |
| > 6.00 | COCc1cccc(-n2nc(C(=O)N[C@H](C)c3cc(N)cc(C(F)(F)F)c3)ccc2=O)c1 [Example 205, N-[(1R)-1-[3-amino-5-(trifluoromethyl)phenyl]ethyl]-1-[3-(methoxymethyl)phenyl]-6-oxo-pyridazine-3-carboxamide] |
| > 6.00 | C[C@@H](NC(=O)c1ccc(=O)n(-c2cccc(-c3nncn3C)c2)c1)c1cc(N)cc(C(F)(F)F)c1 [Example 348, N-[(1R)-1-[3-amino-5-(trifluoromethyl)phenyl]ethyl]-1-[3-(4-methyl-1,2,4-triazol-3-yl)phenyl]-6-oxo-pyridine-3-carboxamide] |
| > 6.00 | Cc1ncc(-n2nc(C(=O)N[C@H](C)c3cc(N)cc(C(F)(F)F)c3)ccc2=O)cn1 [Example 161, N-[(1R)-1-[3-amino-5-(trifluoromethyl)phenyl]ethyl]-1-(2-methylpyrimidin-5-yl)-6-oxo-pyridazine-3-carboxamide] |
| > 6.00 | C[C@@H](NC(=O)c1ccc(=O)n(-c2cc(-c3cnnn3C)ccc2F)n1)c1cccc(C(F)(F)CO)c1F [Example 372, N-[(1R)-1-[3-(1,1-difluoro-2-hydroxy-ethyl)-2-fluoro-phenyl]ethyl]-1-[2-fluoro-5-(3-methyltriazol-4-yl)phenyl]-6-oxo-pyridazine-3-carboxamide] |
| > 6.00 | Cc1nnnn1-c1cccc(-n2nc(C(=O)N[C@H](C)c3cc(N)cc(C(F)(F)F)c3)ccc2=O)c1 [Example 373, N-[(1R)-1-[3-amino-5-(trifluoromethyl)phenyl]ethyl]-1-[3-(5-methyltetrazol-1-yl)phenyl]-6-oxo-pyridazine-3-carboxamide] |
| > 6.00 | C[C@@H](NC(=O)c1ccc(=O)n(-c2ccccc2F)n1)c1cccc(C(F)(F)CO)c1F [Example 217, N-[(1R)-1-[3-(1,1-difluoro-2-hydroxy-ethyl)-2-fluoro-phenyl]ethyl]-1-(2-fluorophenyl)-6-oxo-pyridazine-3-carboxamide] |
| > 6.00 | Cc1nnnn1-c1cccc(-n2cc(C(=O)N[C@H](C)c3cc(N)cc(C(F)(F)F)c3)ccc2=O)c1 [Example 374, N-[(1R)-1-[3-amino-5-(trifluoromethyl)phenyl]ethyl]-1-[3-(5-methyltetrazol-1-yl)phenyl]-6-oxo-pyridine-3-carboxamide] |
| > 6.00 | CNCc1ccccc1-c1ccc([C@@H](C)NC(=O)c2nn(-c3ccccc3F)c(=O)c3ccsc23)s1 [Example 269, 5-(2-fluorophenyl)-N-[(1R)-1-[5-[2-(methylaminomethyl)phenyl]-2-thienyl]ethyl]-4-oxo-thieno[2,3-d]pyridazine-7-carboxamide] |
| > 6.00 | C[C@@H](NC(=O)c1ccc(=O)n(-c2ccccc2F)c1)c1cc(N)cc(C(F)F)c1 [Example 263, N-[(1R)-1-[3-amino-5-(difluoromethyl)phenyl]ethyl]-1-(2-fluorophenyl)-6-oxo-pyridine-3-carboxamide] |
| < 5.00 | C[C@@H](NC(=O)c1ccc(=O)n(-c2cccnc2)c1)c1cc(N)cc(C(F)(F)F)c1 [Example 176, N-[(1R)-1-[3-amino-5-(trifluoromethyl)phenyl]ethyl]-6-oxo-1-(3-pyridyl)pyridine-3-carboxamide] |
| > 6.00 | C[C@@H](NC(=O)c1nn(-c2ccccc2F)c(=O)c2sccc12)c1cc(N)cc(C(F)(F)F)c1 [Example 312, N-[(1R)-1-[3-amino-5-(trifluoromethyl)phenyl]ethyl]-6-(2-fluorophenyl)-7-oxo-thieno[2,3-d]pyridazine-4-carboxamide] |
| > 6.00 | CNCc1ccc(F)cc1-c1ccc([C@@H](C)NC(=O)c2ccc(=O)n(-c3ccccc3F)c2)s1 [Example 287, N-[(1R)-1-[5-[5-fluoro-2-(methylaminomethyl)phenyl]-2-thienyl]ethyl]-1-(2-fluorophenyl)-6-oxo-pyridine-3-carboxamide] |
| > 6.00 | CNCc1cc2c(cc1-c1ccc([C@@H](C)NC(=O)c3ccc(=O)n(-c4ccccc4F)n3)s1)CCC2 [Example 274, 1-(2-fluorophenyl)-N-[(1R)-1-[5-[6-(methylaminomethyl)indan-5-yl]-2-thienyl]ethyl]-6-oxo-pyridazine-3-carboxamide] |
| 5.00 to 6.00 | COc1ccc(-n2nc(C(=O)N[C@H](C)c3cccc(C(F)(F)CO)c3F)c(C3CC3)cc2=O)c(F)c1 [Example 366, 4-cyclopropyl-N-[(1R)-1-[3-(1,1-difluoro-2-hydroxy-ethyl)-2-fluorophenyl]ethyl]-1-(2-fluoro-4-methoxy-phenyl)-6-oxopyridazine-3-carboxamide] |
| > 6.00 | CNCc1cc(Cl)ccc1-c1ccc([C@@H](C)NC(=O)c2ccc(=O)n(-c3ccccc3F)c2)s1 [Example 282, N-[(1R)-1-[5-[4-chloro-2-(methylaminomethyl)phenyl]-2-thienyl]ethyl]-1-(2-fluorophenyl)-6-oxo-pyridine-3-carboxamide] |
| > 6.00 | C[C@@H](NC(=O)c1ccc(=O)n(-c2ccc3cnn(C)c3c2)n1)c1cc(N)cc(C(F)(F)F)c1 [Example 236, N-[(1R)-1-[3-amino-5-(trifluoromethyl)phenyl]ethyl]-1-(1-methyl-1H-indazol-6-yl)-6-oxo-1,6-dihydropyridazine-3-carboxamide] |
| > 6.00 | CNCc1ccc(Cl)cc1-c1ccc([C@@H](C)NC(=O)c2ccc(=O)n(-c3cccnc3F)n2)s1 [Example 270, N-[(1R)-1-[5-[5-chloro-2-(methylaminomethyl)phenyl]-2-thienyl]ethyl]-1-(2-fluoro-3-pyridyl)-6-oxo-pyridazine-3-carboxamide] |
| > 6.00 | COc1ccc(F)c(-n2cc(C(=O)N[C@H](C)c3cccc(C(F)(F)CO)c3F)ccc2=O)c1 [Example 177, N-[(1R)-1-[3-(1,1-difluoro-2-hydroxy-ethyl)-2-fluoro-phenyl]ethyl]-1-(2-fluoro-5-methoxyphenyl)-6-oxo-pyridine-3-carboxamide] |
| > 6.00 | C[C@@H](NC(=O)c1nn(-c2ccccc2F)c(=O)c2cc[nH]c12)c1cccc(C(F)(F)CO)c1F [Example 314, N-[(1R)-1-[3-(1,1-difluoro-2-hydroxy-ethyl)-2-fluoro-phenyl]ethyl]-5-(2-fluorophenyl)-4-oxo-1H-pyrrolo[2,3-d]pyridazine-7-carboxamide] |

Same assay, conditions: read-out: KRAS ^G12C::SOS1 PPI assay (IC50 range, Grade); maximum concentration 3 µM, 8 concentrations, three replicates

| Compound | pIC50 |
| --- | --- |
| N-[(1R)-1-[3-amino-5-(trifluoromethyl)phenyl]ethyl]-1-(3-isoxazol-4-ylphenyl)-6-oxo-pyridazine-3-carboxamide [Example 322] | > 6.00 |
